Laboratory results from patent publication US6555128B2, “Feeds containing docosahexaenoic acid and/or conjugated docosahexaenoic acid, and a method for farming fishes by using such feeds” (Hokkaido University, priority 2000, dated 2003).

What was measured:
steelheads [1] = assay: Feeding of steelheads: content and composition of the lipid in the internal organ; assay type: in vivo, Oncorhynchus, steelheads (rainbow trouts)
Protocol: (§1) Effects of ethyl docosahexaenoate and conjugated ethyl docosahexaenoate upon accumulation of the fat and the lipid composition were examined by feeding both ethyl esters to rainbow trouts.
(§2) Measuring conditions were as follows.
(§3) 1) Sample fish: Oncorhynchus, steelheads 3 months old after birth
(§4) 2) Farming condition: water temperature 10° C., each group 60 fishes
(§5) 3) Feed (fundamental feed: compounded feed for oriental trouts)
(§6) 1st group: fundamental feed +olive oil (5 wt %)
(§7) 2nd group: fundamental feed +olive oil (3 wt %) +ethyl docosahexaenoate (0.5 wt %)
(§8) 3rd group: fundamental feed +olive oil (4.5 wt %) +ethyl conjugated docosahexaenoate (0.5 wt %)
(§9) 4th group: fundamental feed +olive oil (3 wt %) +ethyl conjugated docosahexaenoate (2 wt %)
(§10) Conjugated ethyl docosahexaenoate used is obtained by isomerization of double bonds of ethyl docosahexaenoate in the presence of an alkali catalyst, and its composition consisted of 81.4% of conjugated ethyl docosahexaenoate and 18.6% of ethyl docosahexaenoate. More specifically, conjugated ethyl docosahexaenoate consisted of 57.4% of conjugated diene ester, 12.0% of conjugated triene ester, 12.0% of conjugated tetraene ester and 18.6% of ethyl docosahexaenoate. […]
(§11) Steelheads used, which were 3 months old after birth (average weight 0.82 g) and divided into four groups each consisting 60 steelheads, were farmed at a water temperature of about 10° C. for 21 weeks.
(§12) Effects of the feeds upon the internal organs and the lipid contents of the steelheads 21 weeks old after starting the farming were examined. The concrete lipid compositions in the internal organs are shown in Table 1, and the concrete lipid compositions in muscles shown in Table 2.

steelheads [2] = assay: Feeding of steelheads: content and composition of the lipid in muscles; assay type: in vivo, Oncorhynchus, steelheads (rainbow trouts)
Protocol: as §1, §2, §3, §4, §5, §6, §7, §8, §9, §10, §11, §12

[3] = 0.5 wt % in feed, farmed 21 weeks, water 10° C.
[4] = 2nd to 4th groups versus feed with neither ester

What does the source list for `CC/C=C\C/C=C\C/C=C\C/C=C\C/C=C\C/C=C\CCC(=O)OCC` [ethyl docosahexaenoate]?
Lipid composition (%) FFA, internal organ (steelheads [1]; [3]): 3.0%; Lipid composition (%) PL, internal organ (steelheads [1]; [3]): 5.8%; Lipid composition (%) SE, internal organ (steelheads [1]; [3]): 1.6%; Lipid composition (%) TG, internal organ (steelheads [1]; [3]): 89.6%; Lipid content (%) in the internal organ (steelheads [1]; [3]): 23.2%; lipid contents in the internal organs compared with 1st group (FIG. 1) (steelheads [1]; [4]): lower lipid contents; Lipid composition (%) FFA, muscles (steelheads [2]; [3]): 1.7%; Lipid composition (%) PL, muscles (steelheads [2]; [3]): 21.0%; Lipid composition (%) SE, muscles (steelheads [2]; [3]): 0.7%; Lipid composition (%) TG, muscles (steelheads [2]; [3]): 76.6%; Lipid content (%) in muscles (steelheads [2]; [3]): 4.3%; lipid contents in the muscles compared with 1st group (FIG. 1) (steelheads [2]; [4]): lower lipid contents
